Measurements from ChEMBL document CHEMBL3739292, “Synthesis and Biological Evaluation of Polar Functionalities Containing Nitrodihydroimidazooxazoles as Anti-TB Agents” (ACS Med Chem Lett, 2015).
In brackets after ≈: the same amount, converted by molar mass.

Columns and labels:
[1] = system: Mycobacterium tuberculosis; test: Antimicrobial activity against nonreplicating Mycobacterium tuberculosis 18b by resazurin microtiter assay; assay type: functional
[2] = Cytotoxicity against human HepG2 cells after 24 hrs by MTT assay; assay type: cell-based
[3] = system: Mycobacterium tuberculosis; test: Antimicrobial activity against Mycobacterium tuberculosis H37Rv ATCC 27294 after 7 days by resazurin microtiter assay; assay type: functional; settings: H37Rv ATCC 27294, 168 h
[4] = Selectivity index, ratio of CC50 for human HepG2 cells to MIC for Mycobacterium tuberculosis H37Rv ATCC 27294; assay type: toxicity, cell-based; settings: read-out: Selectivity Index
[5] = Aqueous solubility of compound at pH7 for 4 hrs by HPLC analysis; assay type: physicochemical; settings: aqueous solution, pH 7
[6] = Solubility of compound in phosphate buffer solution at pH 7.4 after 4 hrs by HPLC analysis; assay type: physicochemical
[7] = Clearance in Balb/c mouse at 5 mg/kg, po by LC-MS/MS analysis; assay type: ADME, organism-based; settings: in vivo
[8] = Tmax in Balb/c mouse at 5 mg/kg, po by LC-MS/MS analysis; assay type: ADME, organism-based; settings: in vivo
[9] = (§1) Half life in Balb/c mouse at 5 mg/kg, po by LC-MS/MS analysis; assay type: ADME, organism-based; settings: Balb/c, in vivo
Mus musculus [10] = test: Toxicity in Balb/c mouse at 100 mg/kg, po; assay type: organism-based; settings: in vivo
Mus musculus [11] = test: Toxicity in Balb/c mouse at 20 mg/kg, po; assay type: organism-based; settings: in vivo
Mus musculus [12] = test: Toxicity in Balb/c mouse at 25 mg/kg, po once daily for 5 days; assay type: organism-based; settings: in vivo, 120 h
[13] = Solubility of compound in simulated intestinal fluid at pH 6.8 after 4 hrs by HPLC analysis; assay type: ADME
[14] = Solubility of compound in simulated gastric fluid at pH 1.2 after 4 hrs by HPLC analysis; assay type: ADME
Mus musculus [15] = test: Volume of distribution in Balb/c mouse at 5 mg/kg, po by LC-MS/MS analysis; assay type: ADME, organism-based; settings: in vivo
[16] = Cmax in Balb/c mouse at 5 mg/kg, po by LC-MS/MS analysis; assay type: ADME, organism-based; design: dose 5 mg/kg, route oral; settings: in vivo
[17] = Metabolic stability in rat liver microsomes assessed as compound remaining after 30 mins by LC-MS/MS analysis; assay type: ADME; settings: read-out: Stability
[18] = system: Mycobacterium tuberculosis; test: Antitubercular activity against Mycobacterium tuberculosis H37Rv infected in Balb/c mouse assessed as decrease in bacterial load at 25 mg/kg, po once daily for 5 days (reference value: 1.61 LogCFU ); assay type: functional
[19] = (§2) AUC (0 to t) in Balb/c mouse at 5 mg/kg, po by LC-MS/MS analysis; assay type: ADME, organism-based; settings: Balb/c, in vivo
Mus musculus [20] = test: as §1; assay type: ADME, organism-based; settings: in vivo
Mus musculus [21] = test: as §2; assay type: ADME, organism-based; settings: in vivo

| SMILES | MIC [1] | MIC90 [3] | solubility at 4 h [5] | further results |
| --- | --- | --- | --- | --- |
| C[C@]1(COc2ccc(N3CCC(Oc4ccc(OC(F)(F)F)cc4)CC3)cc2)Cn2cc([N+](=O)[O-])nc2O1 | 0.37 µg/mL (≈ 0.692 µM) | 0.007 µg/mL (≈ 0.0131 µM) | – | CC50 at 24 h [2]: 108 µg/mL (≈ 201 µM) |
| C[C@]1(COc2ccc(NC(=O)Nc3ccccc3F)cc2)Cn2cc([N+](=O)[O-])nc2O1 | – | 1.67 µg/mL (≈ 3.91 µM) | – | – |
| C[C@]1(COc2ccc(S(=O)(=O)N3CCC(c4ccccc4)CC3)cc2)Cn2cc([N+](=O)[O-])nc2O1 | – | 0.67 µg/mL (≈ 1.34 µM) | – | – |
| CCOc1ccc(NC(=O)Nc2ccc(OC[C@@]3(C)Cn4cc([N+](=O)[O-])nc4O3)cc2)cc1 | 1 µg/mL (≈ 2.21 µM) | 0.5 µg/mL (≈ 1.1 µM) | 6.66 µg/mL (≈ 14.7 µM) | selectivity ratio [4]: > 80; CC50 at 24 h [2]: > 20 µg/mL |
| CC(C)(C)OC(=O)N1CCN(c2ccc(OC[C@@]3(C)Cn4cc([N+](=O)[O-])nc4O3)cc2)CC1 | – | 6.67 µg/mL (≈ 14.5 µM) | – | – |
| C[C@]1(COc2ccc(S(=O)(=O)N3CCCC3)cc2)Cn2cc([N+](=O)[O-])nc2O1 | – | 1 µg/mL (≈ 2.45 µM) | – | – |
| C[C@]1(COc2ccc(NC(=O)Nc3ccc(C(F)(F)F)cc3)cc2)Cn2cc([N+](=O)[O-])nc2O1 | – | 0.5 µg/mL (≈ 1.05 µM) | < 1 µg/mL | – |
| COc1ccc(S(=O)(=O)N2CCN(c3ccc(OC[C@@]4(C)Cn5cc([N+](=O)[O-])nc5O4)cc3)CC2)cc1 | – | 0.5 µg/mL (≈ 0.944 µM) | < 1 µg/mL | – |
| C[C@]1(COc2ccc(S(=O)(=O)N3CCN(c4cccc(Cl)c4)CC3)cc2)Cn2cc([N+](=O)[O-])nc2O1 | – | 0.83 µg/mL (≈ 1.55 µM) | – | – |
| CC(C)(C)c1ccc(NC(=O)Nc2ccc(OC[C@@]3(C)Cn4cc([N+](=O)[O-])nc4O3)cc2)cc1 | – | 0.09 µg/mL (≈ 0.193 µM) | < 1 µg/mL | – |
| CCc1ccc(NC(=S)Nc2ccc(OC[C@@]3(C)Cn4cc([N+](=O)[O-])nc4O3)cc2)cc1 | – | 1 µg/mL (≈ 2.2 µM) | – | – |
| C[C@]1(COc2ccc(NC(=O)Nc3ccc(Cl)cc3)cc2)Cn2cc([N+](=O)[O-])nc2O1 | 4 µg/mL (≈ 9.01 µM) | 0.25 µg/mL (≈ 0.563 µM) | 6.66 µg/mL (≈ 15 µM) | selectivity ratio [4]: > 80; CC50 at 24 h [2]: > 20 µg/mL |
| CCOC(=O)N1CCN(S(=O)(=O)c2ccc(OC[C@@]3(C)Cn4cc([N+](=O)[O-])nc4O3)cc2)CC1 | – | 4 µg/mL (≈ 8.07 µM) | – | – |
| C[C@]1(COc2ccc(NC(=S)Nc3ccc(OC(F)(F)F)cc3)cc2)Cn2cc([N+](=O)[O-])nc2O1 | – | 0.25 µg/mL (≈ 0.491 µM) | < 1 µg/mL | – |
| C[C@]1(COc2ccc(N3CCN(S(=O)(=O)c4ccccc4)CC3)cc2)Cn2cc([N+](=O)[O-])nc2O1 | – | 1 µg/mL (≈ 2 µM) | – | – |
| Cc1ccc(S(=O)(=O)N2CCN(c3ccc(OC[C@@]4(C)Cn5cc([N+](=O)[O-])nc5O4)cc3)CC2)cc1 | – | 0.5 µg/mL (≈ 0.974 µM) | < 1 µg/mL | – |

| SMILES | MIC [1] | MIC90 [3] | solubility at 4 h [5] | further results |
| --- | --- | --- | --- | --- |
| Cc1ccc(NC(=S)Nc2ccc(OC[C@@]3(C)Cn4cc([N+](=O)[O-])nc4O3)cc2)cc1 | – | 0.83 µg/mL (≈ 1.89 µM) | – | – |
| C[C@]1(COc2ccc(NC(=O)Nc3ccc(OC(F)(F)F)cc3)cc2)Cn2cc([N+](=O)[O-])nc2O1 | – | 0.67 µg/mL (≈ 1.36 µM) | – | – |
| C[C@]1(COc2ccc(S(=O)(=O)N3CCN(C(=O)c4ccccc4)CC3)cc2)Cn2cc([N+](=O)[O-])nc2O1 | – | 4 µg/mL (≈ 7.58 µM) | – | – |
| Cc1ccc(NC(=O)Nc2ccc(OC[C@@]3(C)Cn4cc([N+](=O)[O-])nc4O3)cc2)cc1 | – | 0.21 µg/mL (≈ 0.496 µM) | < 1 µg/mL | – |
| COc1ccc(NC(=O)Nc2ccc(OC[C@@]3(C)Cn4cc([N+](=O)[O-])nc4O3)cc2)cc1 | – | 2 µg/mL (≈ 4.55 µM) | – | – |
| CC(C)(C)OC(=O)Nc1ccc(OC[C@@]2(C)Cn3cc([N+](=O)[O-])nc3O2)cc1 | – | 1.34 µg/mL (≈ 3.43 µM) | – | – |
| COc1ccc(NC(=S)Nc2ccc(OC[C@@]3(C)Cn4cc([N+](=O)[O-])nc4O3)cc2)cc1 | > 8 µg/mL | 0.5 µg/mL (≈ 1.1 µM) | 8.66 µg/mL (≈ 19 µM) | selectivity ratio [4]: > 80; CC50 at 24 h [2]: > 20 µg/mL |
| CCc1ccc(NC(=O)Nc2ccc(OC[C@@]3(C)Cn4cc([N+](=O)[O-])nc4O3)cc2)cc1 | – | 0.5 µg/mL (≈ 1.14 µM) | < 1 µg/mL | – |
| C[C@]1(COc2ccc(S(=O)(=O)N3CCOCC3)cc2)Cn2cc([N+](=O)[O-])nc2O1 | 1.34 µg/mL (≈ 3.16 µM) | 0.37 µg/mL (≈ 0.872 µM) | 20 µg/mL (≈ 47.1 µM) | solubility at 4 h [6]: 20 µg/mL (≈ 47.1 µM); CL/F [7]: 75.2 mL/min/kg; Tmax [8]: 0.5 h; selectivity ratio [4]: > 40; half-life [9]: 119 min; Activity (Mus musculus [10]): Non-toxic; CC50 at 24 h [2]: > 20 µg/mL; Activity (Mus musculus [11]): Non-toxic; Activity (Mus musculus [12]): Non-toxic; solubility at 4 h [13]: 20 µg/mL (≈ 47.1 µM); solubility at 4 h [14]: 20 µg/mL (≈ 47.1 µM); Vd (Mus musculus [15]): 12970 mL/kg; Cmax [16]: 640 ng/mL; remaining at 0.5 h [17]: 99.3%; Activity [18]: 1.28 log10CFU; AUC(0-t) [19]: 879 ng·h/mL |
| C[C@]1(COc2ccc(N3CCN(S(=O)(=O)c4ccc(C(F)(F)F)cc4)CC3)cc2)Cn2cc([N+](=O)[O-])nc2O1 | – | 0.25 µg/mL (≈ 0.44 µM) | < 1 µg/mL | – |
| Cc1ccccc1NC(=O)Nc1ccc(OC[C@@]2(C)Cn3cc([N+](=O)[O-])nc3O2)cc1 | – | 1 µg/mL (≈ 2.36 µM) | – | – |
| C[C@]1(COc2ccc(N3CCN(S(=O)(=O)c4ccc(F)cc4)CC3)cc2)Cn2cc([N+](=O)[O-])nc2O1 | > 8 µg/mL | 0.06 µg/mL (≈ 0.116 µM) | 8.33 µg/mL (≈ 16.1 µM) | selectivity ratio [4]: > 333; CC50 at 24 h [2]: > 20 µg/mL |
| C[C@]1(COc2ccc(-n3cc(COc4ccc(OC(F)(F)F)cc4)nn3)cc2)Cn2cc([N+](=O)[O-])nc2O1 | 4 µg/mL (≈ 7.51 µM) | 0.12 µg/mL (≈ 0.225 µM) | < 1 µg/mL | solubility at 4 h [6]: < 1 µg/mL; Tmax [8]: 2 h; selectivity ratio [4]: > 166; t1/2 (Mus musculus [20]): 4.01 h; Activity (Mus musculus [10]): Non-toxic; CC50 at 24 h [2]: > 20 µg/mL; Activity (Mus musculus [11]): Non-toxic; Activity (Mus musculus [12]): Non-toxic; solubility at 4 h [13]: < 1 µg/mL; solubility at 4 h [14]: < 1 µg/mL; Vd (Mus musculus [15]): 377 mL/kg; Cmax [16]: 540 ng/mL; remaining at 0.5 h [17]: 90.8%; AUCt (Mus musculus [21]): 7.428 µg·h/mL |
| C[C@]1(COc2ccc(S(=O)(=O)N3CCCCC3)cc2)Cn2cc([N+](=O)[O-])nc2O1 | 10.7 µg/mL (≈ 25.3 µM) | 0.5 µg/mL (≈ 1.18 µM) | 13.3 µg/mL (≈ 31.6 µM) | selectivity ratio [4]: > 40; CC50 at 24 h [2]: > 20 µg/mL |
| COc1c(N2CCNC(C)C2)c(F)cc2c(=O)c(C(=O)O)cn(C3CC3)c12 (configuration not stated) [GATIFLOXACIN] | 1 µg/mL (≈ 2.66 µM) | – | – | – |
| CO[C@H]1/C=C/O[C@@]2(C)Oc3c(C)c(O)c4c(O)c(c(/C=N/N5CCN(C)CC5)c(O)c4c3C2=O)NC(=O)/C(C)=C\C=C\[C@H](C)[C@H](O)[C@@H](C)[C@@H](O)[C@@H](C)[C@H](OC(C)=O)[C@@H]1C [RIFAMPIN] | 2 µg/mL (≈ 2.43 µM) | 0.06 µg/mL (≈ 0.0729 µM) | – | – |
